Test [1] has as its system P388 Leukemia. In words: Antitumor activity against P388 leukemia in mice (increased life span). In kind it is in vivo, CDF1 mice. The settings on record: Mus musculus, P388, ip, 720 h, read-out: ILS (increased life span). An outline of the steps: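 CDF1 mice (20–25 g) received 1×10^6 P388 cells intraperitoneally, taken from DBA/2 ascites on day 7 after transplantation. Activity expressed as ILS%, the ratio of mean survival days in treated versus untreated control mice.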

In test [2] the test system is Bacillus subtilis No. 10707. The test can be described thus: Antibacterial activity, agar dilution method (MIC). Type of test: cell-based. The source says:
(§1) The antibacterial activity as determined by the agar dilution method using a medium prepared by dissolving 3 g of Bacto-Tryptone (a product of Difco Laboratories), 3 g of a meat extract, 1 g of an yeast extract, 1 g of glucose and 16 g of agar in one liter of water (pH 7).
BS: Bacillus subtilis No. 10707
(In general: Agar dilution tests growth on a series of plates holding different concentrations.)

The test system of test [3] is Klebsiella pneumoniae ATCC 10031. In words: Antibacterial activity, agar dilution method (MIC). Type of test: cell-based.
Source text: as §1
KP: Klebsiella pneumoniae ATCC 10031

The subject of test [4] is Enterococcus faecium ATCC 10541. In words: Antibacterial activity, agar dilution method (MIC). Type of test: cell-based.
Source text: as §1
EF: Enterococcus faecium ATCC 10541

The test system of test [5] is Staphylococcus aureus ATCC 6538P. In words: Antibacterial activity, agar dilution method (MIC). In kind it is cell-based. The settings on record: ATCC6538P.
Source text: as §1
SA: Staphylococcus aureus ATCC 6538P

Test [6] has as its system Escherichia coli ATCC 26. In words: Antibacterial activity, agar dilution method (MIC). In kind it is cell-based.
Source text: as §1
EC: Escherichia coli ATCC 26

Test [7] relates to various bacteria. The settings on record: Japanese Published Unexamined Patent Application No. 112988/89; cited from earlier work.
The conditions of test [8]: Japanese Published Unexamined Patent Application No. 112988/89; cited from earlier work.
[9] abbreviates: BS: Bacillus subtilis No. 10707, pH 7, read-out: MIC (minimum growth inhibitory concentration).
Setting [10] is: ATCC10031, KP: Klebsiella pneumoniae ATCC 10031, agar dilution, pH 7, read-out: MIC (minimum growth inhibitory concentration).
Setting [11] is: ATCC10541, EF: Enterococcus faecium ATCC 10541, pH 7, read-out: MIC (minimum growth inhibitory concentration).
Setting [12] is: SA: Staphylococcus aureus ATCC 6538P, agar dilution, pH 7, read-out: MIC (minimum growth inhibitory concentration).
Setting [13] is: ATCC26, EC: Escherichia coli ATCC 26, pH 7, read-out: MIC (minimum growth inhibitory concentration).

≈ marks a conversion by molar mass, not a printed value. Like-named read-outs stand apart in the source and are kept apart here.

With `CC(=O)NCC(=O)OC1/C=C(\C)CCC2(CC(=O)NC(C)c3nc(cs3)/C=C\C=C\C1=O)[S+]([O-])SC(=O)C2(C)O` (centres unmarked) [Compound 100], the increase in life span (ILS) (as a rule, the gain in survival time of treated over control animals, in per cent) at 4 mg/kg in test [1] came to 66%. Moreover, the MIC in test [2] (Bacillus subtilis, NO.10707, pH 7, read-out: MIC (minimum growth inhibitory concentration), BS: Bacillus subtilis No. 10707) turned out to be 0.081 µg/mL (≈ 0.133 µM); in test [3] (Klebsiella pneumoniae, ATCC10031, pH 7, read-out: MIC (minimum growth inhibitory concentration)), 0.041 µg/mL (≈ 0.0672 µM); in test [4] (Enterococcus faecium, ATCC10541, pH 7, read-out: MIC (minimum growth inhibitory concentration), EF: Enterococcus faecium ATCC 10541), 0.041 µg/mL (≈ 0.0672 µM); in test [5] (Staphylococcus aureus, pH 7, read-out: MIC (minimum growth inhibitory concentration)), 0.041 µg/mL (≈ 0.0672 µM); in test [6] (Escherichia coli, ATCC26, pH 7, read-out: MIC (minimum growth inhibitory concentration), EC: Escherichia coli ATCC 26) it was 2.6 µg/mL (≈ 4.26 µM).

In the case of `C/C1=C\C(OC(=O)[C@H](C)NC(=O)OCc2ccccc2)C(=O)/C=C/C=C\c2csc(n2)C(C)NC(=O)CC2(CC1)[S+]([O-])SC(=O)C2(C)O` (some centres unmarked) [Compound 103], in test [1] (4.0 mg/kg, single i.p. 24 hours after transplantation, CDF1 mice, 30 days observation), the ILS at 4 mg/kg turned out to be 52%. Further, the MIC in test [2] (setting [9]) is 0.041 µg/mL (≈ 0.0573 µM); in test [3] (setting [10]), 1.3 µg/mL (≈ 1.82 µM); in test [4] (setting [11]), 0.081 µg/mL (≈ 0.113 µM); in test [5] (setting [12]), 42 µg/mL (≈ 58.7 µM); in test [6] (setting [13]) it was 10 µg/mL (≈ 14 µM).

Consider `CCC(=O)OC1/C=C(\C)CCC2(CC(=O)NC(C)c3nc(cs3)/C=C\C=C\C1=O)[S+]([O-])SC(=O)C2(C)O` (centres unmarked) [Compound 2], for which the increase in life span (ILS) at 2 mg/kg in test [1] (2.0 mg/kg, single i.p. 24 hours after transplantation, CDF1 mice, 30 days observation) came to 42%. The MIC in test [2] (setting [9]) came out at 0.33 µg/mL (≈ 0.582 µM); in test [3] (setting [10]), 0.65 µg/mL (≈ 1.15 µM); in test [4] (setting [11]), 0.081 µg/mL (≈ 0.143 µM); in test [5] (setting [12]) it was 0.041 µg/mL (≈ 0.0723 µM); in test [6] (setting [13]), 1.3 µg/mL (≈ 2.29 µM).

For the compound `C/C1=C\C(O)C(=O)/C=C/C=C\c2csc(n2)C(C)NC(=O)CC2(CC1)[S+]([O-])SC(=O)C2(C)O` (centres unmarked) [DC107], the antibacterial activity result in test [7] is recorded as “exhibits an antibacterial activity against various bacteria”. Also, in test [8], the antitumor activity entry was “also an antitumor activity”.

As for `C/C1=C\C(OC(=O)C2CCCCC2)C(=O)/C=C/C=C\c2csc(n2)C(C)NC(=O)CC2(CC1)[S+]([O-])SC(=O)C2(C)O` (centres unmarked) [Compound 6], the increase in life span (ILS) at 4 mg/kg in test [1] turned out to be 49%. Further, the MIC was found to be 0.028 µg/mL (≈ 0.0451 µM) in test [2] (setting [9]); 7.3 µg/mL (≈ 11.8 µM) in test [3] (setting [10]); 0.91 µg/mL (≈ 1.47 µM) in test [4] (setting [11]); 0.91 µg/mL (≈ 1.47 µM) in test [5] (setting [12]); 3.7 µg/mL (≈ 5.96 µM) in test [6] (setting [13]).

Turning to `C/C1=C\C(OC(=O)CNC(=O)OCc2ccccc2)C(=O)/C=C/C=C\c2csc(n2)C(C)NC(=O)CC2(CC1)[S+]([O-])SC(=O)C2(C)O` (centres unmarked) [Compound 97], the increase in lifespan (ILS) at 8 mg/kg in test [1] (8.0 mg/kg, single i.p. 24 hours after transplantation, CDF1 mice, 30 days observation) turned out to be 54%. Besides, the MIC in test [2] (setting [9]) amounted to 0.33 µg/mL (≈ 0.47 µM); in test [3] (setting [10]) it was 0.81 µg/mL (≈ 1.15 µM); in test [4] (setting [11]), 0.041 µg/mL (≈ 0.0584 µM); in test [5] (setting [12]), 0.041 µg/mL (≈ 0.0584 µM); in test [6] (setting [13]), 0.65 µg/mL (≈ 0.926 µM).

The record behind these values is US5733924A, “DC 107 derivatives and treatment methods” (Kyowa Hakko Kogyo Co., Ltd., priority 1995, dated 1998).
